Results reported in patent publication US20160024175A1, “CHEMOTHERAPY-RESISTANT IMMUNE CELLS” (priority 2013, published 2016).
Like-named read-outs stand apart in the source and are kept apart here.

What was measured:
U373.eGFP.FFLuc cells = test: Coculture of U373.eGFP.FFLuc tumor cells with T cells with or without TMZ, tumor killing by fluorescence microscopy; type: cell-based; settings: TMZ with non-transduced (NT) T cells
Description: Tumor killing was evaluated by fluorescence microscopy.
Both TMZ and HER2.CAR T cells have anti-GBM activity on their own; however, it is unknown whether combining the agents provides additional benefit.

[1] = system: glioblastoma multiforme (GBM); settings: cited from earlier work; for median overall survival: GBM patients receiving TMZ
HER2.CAR T cells = test: Expansion of HER2.CAR T cells with IL-2 under repeated TMZ treatment (cell counts every three days); type: cell-based; settings: 100 μM TMZ, retreated every three days, 100 U/ml IL-2; n=4 donors; p<0.05
Description: 1×10^6 HER2.CAR T cells were plated on day 1 with 100 U/ml of IL-2 and treated with 100 μM TMZ. Every three days, the T cells were counted, given fresh IL-2, and retreated with TMZ.
To do this, 1×10^6 HER2.CAR T cells were plated with 100 U/ml of IL-2 and treated with 100 μM TMZ (day 1). Every three days, the T cells were counted, given fresh IL-2, and re-treated with TMZ.

## Cn1nnc2c(C(N)=O)ncn2c1=O [TMZ, 3-methyl-4-oxo-3H,4H-imidazo[4,3-d][1,2,3,5]tetrazine-8-carboxamide]
U373.eGFP.FFLuc cells
  antitumor activity / tumor killing: limited antitumor activity
[1]; methylated MGMT promoters
  median overall survival: 21.7 months
[1]; unmethylated MGMT promoters
  median overall survival: 12.7 months
[1]; phase III trial, TMZ with radiation therapy vs. radiotherapy alone, GBM patients
  overall survival: significantly improve the overall survival
HER2.CAR T cells
  effect of TMZ on T-cell expansion: effectively prevented T-cell expansion
